Data on 39 molecules can be found in US8541363B2, “Pyruvamide compounds as inhibitors of dust mite group 1 peptidase allergen and their use” (St George's Hosptial Medical School, priority 2010, dated 2013).

The target in one test is Der p 1 (Dermatophagoides pteronyssinus (European house dust mite), UniProt P08176). Description: Der p 1 enzyme activity assay (FRET fluorogenic substrate). It is filed as biochemical. The conditions noted are these: Der p 1 IC50. As to the method: The fluorogenic substrate used for measuring Der p 1 proteolytic activity was 2-aminobenzoylvalylalanylnorleucylseryl-(3-nitro)tyrosinyl aspartamide.
Der p 1, sequence (P08176 99-320): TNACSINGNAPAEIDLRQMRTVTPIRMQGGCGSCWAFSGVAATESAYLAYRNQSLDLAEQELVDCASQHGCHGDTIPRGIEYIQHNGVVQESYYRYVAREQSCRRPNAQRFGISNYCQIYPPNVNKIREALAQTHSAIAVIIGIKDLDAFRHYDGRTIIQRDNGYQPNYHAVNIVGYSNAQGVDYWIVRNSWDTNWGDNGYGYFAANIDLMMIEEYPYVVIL
Test compounds were dissolved in dry DMSO and maintained at 4° C. as stock solutions until being diluted for use in screening assays. Final concentration of DMSO in all enzymatic assays was 0.5% v/v.
Reaction mixtures were assembled in a 96-well plate format (Perkin Elmer Optiplate 96F, Perkin Elmer LAS, Seer Green, Buckinghamshire, UK) using a Perkin Elmer MultiPROBE II Plus HTS EX robot with Gripper attachment. […] Dithiothreitol (DTT, 10 μL/well, 1 mM final concentration) was then added together with 10 μL of Der p 1 dissolved at 2.5 μg/mL in reaction buffer supplemented with 1 mM DTT. […] The plate was immediately transferred to a fluorescence plate reader (Perkin Elmer Fusion Alpha-FP or Perkin Elmer Envision) equipped with a temperature-controlled carrier set at 30° C. and the reaction followed by excitation/emission at 330/420 nm.
Inhibitory activity was analysed from progress curves of reactions in the presence of a range of inhibitor concentrations.
Initial velocity in each well was converted to fractional activity by Equation 1: Fractional activity=(Initial rate at inhibitor concentration[X]/Initial rate at inhibitor concentration zero)*100 Equation 1:
Then, IC50 was determined by fitting the data of fractional activity and inhibitor concentration to a 4-parameter logistic curve, using Equation 2: V=Vmin+[Vmax−Vmin]/[1+(X/IC50)Hillslope] […] Biological Data—Der p 1 Enzyme Assay
As usually defined, the IC50 is the concentration needed to halve the response being measured. Regarding `CC(C)[C@H](NC(=O)[C@H](C)NC(=O)[C@H](Cc1ccccc1)NC(=O)c1ccccc1)C(=O)C(=O)NCC(=O)N1CCN(C(C)C)CC1` [PVA-092], the 50% inhibitory concentration (IC50) is under 20 nM.
Still for that read-out and setting: to `CC(C)[C@H](NC(=O)[C@H](C)NC(=O)[C@H](Cc1ccccc1)NC(=O)c1ccccc1)C(=O)C(=O)N[C@@H](C)C(=O)N1CCN(C)CC1` [PVA-094] belongs under 20 nM; to `CC(C)[C@@H](NC(=O)[C@H](C)NC(=O)[C@@H](NC(=O)c1ccccc1)C(C)(C)C)C(=O)C(=O)NC1CCCCC1` [PVA-085], under 200 nM.
Same read-out and setting: as for `CC(C)[C@H](NC(=O)[C@H](C)NC(=O)[C@@H](NC(=O)c1ccccc1)C12CC3CC(CC(C3)C1)C2)C(=O)C(=O)NCC(=O)N1CCN(C)CC1` [PVA-146], the figure is under 20 nM.

Staying with this test, now noted: Table 1; read-out: Der p 1 IC50.
Regarding `CCCC[C@H](NC(=O)[C@H](C)NC(=O)[C@@H](NC(=O)c1ccncc1)C(C)(C)C)C(=O)C(=O)NC1CCCCC1` [PVA-039], the IC50 is 6.3 nM.

The same test, now with this note: threshold stated in text; read-out: Der p 1 IC50.
Take `CC(C)[C@H](NC(=O)[C@H](C)NC(=O)[C@H](Cc1ccccc1)NC(=O)c1ccc2ncsc2c1)C(=O)C(=O)NCc1ccccc1` [PVA-051]: the IC50 was under 200 nM.
On to `CC(C)[C@H](NC(=O)[C@H](C)NC(=O)[C@@H](Cc1ccc(F)cc1)NC(=O)c1ccccc1)C(=O)C(=O)NCc1ccccc1` [PVA-045], for which the IC50 was under 200 nM.
Turning to `CC(C)[C@H](NC(=O)[C@H](C)NC(=O)[C@@H](NC(=O)c1ccncc1)C(C)(C)C)C(=O)C(=O)NCc1ccccc1` [PVA-128], the IC50 was under 20 nM.
The same measure, in the same setting: as for `CC(C)[C@H](NC(=O)[C@H](C)NC(=O)[C@H](Cc1ccccc1)NC(=O)c1ccncc1)C(=O)C(=O)NCc1cccc(S(N)(=O)=O)c1` [PVA-171], the figure is under 200 nM.
`CC(=O)Nc1ccc(C(=O)N[C@H](C(=O)N[C@@H](C)C(=O)N[C@H](C(=O)C(=O)NCc2ccccc2)C(C)C)C(C)(C)C)cn1` [PVA-063]: the IC50 is under 200 nM.
In the case of `CCCC[C@H](NC(=O)[C@H](C)NC(=O)[C@@H](NC(=O)c1ccncc1)C(C)(C)C)C(=O)C(=O)NC1CCCCC1` [PVA-039], the IC50 was under 20 nM.
Regarding `CC(C)[C@H](NC(=O)[C@H](C)NC(=O)[C@@H](NC(=O)c1ccc(=O)[nH]c1)C(C)(C)C)C(=O)C(=O)NC1CCCCC1` [PVA-084], the IC50 was under 200 nM.
In the case of `CC(C)NC(=O)C(=O)[C@@H](NC(=O)[C@H](C)NC(=O)[C@H](Cc1ccccc1)NC(=O)c1ccccc1)C(C)C` [PVA-015], the IC50 was under 200 nM.
On to `CC(C)[C@H](NC(=O)[C@H](C)NC(=O)[C@@H](NC(=O)c1ccccc1)C(C)(C)c1ccccc1)C(=O)C(=O)NCc1ccccc1` [PVA-121], for which the concentration for half-maximal inhibition (IC50) was under 200 nM.
`CCCCC(NC(=O)[C@H](C)NC(=O)[C@H](Cc1ccccc1)NC(=O)c1ccccc1)C(=O)C(=O)NCc1ccncc1` (stereo partly shown) [PVA-040]: the IC50 is under 2000 nM.
With `CC(C)[C@H](NC(=O)[C@H](C)NC(=O)[C@@H](NC(=O)c1ccccc1N1CCN(C)CC1)C(C)(C)C)C(=O)C(=O)NCc1ccccc1` [PVA-201], the IC50 was under 200 nM.
Turning to `CC(C)[C@H](NC(=O)[C@H](C)NC(=O)C1(NC(=O)c2ccccc2)CCCCC1)C(=O)C(=O)NC1CCCCC1` [PVA-091], the IC50 was under 200 nM.
As to `CCCC[C@H](NC(=O)[C@H](C)NC(=O)[C@@H](Cc1ccccc1)NC(=O)c1ccc(N2CCN(C)CC2)cc1)C(=O)C(=O)NC1CCCCC1` [PVA-043], the IC50 is under 2000 nM.
`CC(C)[C@H](NC(=O)[C@H](C)NC(=O)C1CCCN1C(=O)c1ccccc1)C(=O)C(=O)NCC(=O)N1CCN(C)CC1` (stereo partly shown) [PVA-145]: the IC50 is under 200 nM.
On the same count and under the same terms, as for `COc1cccc(CNC(=O)C(=O)[C@@H](NC(=O)[C@H](C)NC(=O)[C@H](Cc2ccccc2)NC(=O)c2ccncc2)C(C)C)c1` [PVA-160], the figure is under 200 nM; as for `CC(C)[C@H](NC(=O)[C@H](C)NC(=O)[C@@H](NC(=O)c1ccc(OCCN2CCCC2)cc1)C(C)(C)C)C(=O)C(=O)NC1CCCCC1` [PVA-076], under 200 nM; as for `COc1ccc(CNC(=O)C(=O)[C@@H](NC(=O)[C@H](C)NC(=O)[C@H](Cc2ccccc2)NC(=O)c2ccncc2)C(C)C)cc1` [PVA-159], under 200 nM.
Regarding `CC(C)[C@H](NC(=O)[C@H](C)NC(=O)[C@@H](NC(=O)c1ccc2ncsc2c1)C(C)(C)C)C(=O)C(=O)NCc1ccccc1` [PVA-057], the IC50 is under 200 nM.
On the same count and under the same terms, to `CC(C)[C@H](NC(=O)[C@H](C)NC(=O)[C@@H](NC(=O)c1ccccc1C(=O)O)C(C)(C)C)C(=O)C(=O)NCC(=O)N1CCN(C)CC1` [PVA-136] belongs under 20 nM; to `CC(=O)Nc1ccc(C(=O)N[C@H](C(=O)N[C@@H](C)C(=O)N[C@H](C(=O)C(=O)NC2CCCCC2)C(C)C)C(C)(C)C)cn1` [PVA-061], under 200 nM.
Take `CC(C)[C@H](NC(=O)[C@H](C)NC(=O)[C@@H](NC(=O)N1CCN(C)CC1)C(C)(C)C)C(=O)C(=O)NCc1ccccc1` [PVA-122]: the IC50 is under 200 nM.
For the molecule `CC(C)[C@H](NC(=O)[C@H](C)NC(=O)[C@H](Cc1ccccc1)NC(=O)c1ccc(N2CCOCC2)nc1)C(=O)C(=O)NCc1ccccc1` [PVA-070], the IC50 was under 2000 nM.
As to `CC(C)[C@H](NC(=O)[C@H](C)NC(=O)[C@H](Cc1ccccc1)NC(=O)c1ccncc1)C(=O)C(=O)NCc1cccc(C(N)=O)c1` [PVA-169], the half-maximal inhibitory concentration (IC50) was under 20 nM.
Same read-out and setting: as for `CC(C)[C@H](NC(=O)[C@H](C)NC(=O)[C@@H](NC(=O)c1ccccc1)C(C)(C)C)C(=O)C(=O)NCc1ccc(C(C)(C)C)cc1` [PVA-180], the figure is under 200 nM.
Regarding `CC(C)[C@H](NC(=O)[C@H](C)NC(=O)[C@@H](NC(=O)c1ccnc(N2CCOCC2)c1)C(C)(C)C)C(=O)C(=O)NCc1ccccc1` [PVA-048], the IC50 was under 200 nM.
Regarding `CC(C)[C@H](NC(=O)[C@H](C)NC(=O)[C@@H](NC(=O)c1ccnc2ccccc12)C(C)(C)C)C(=O)C(=O)NCc1ccccc1` [PVA-072], the concentration for half-maximal inhibition (IC50) is under 20 nM.
Take `CC(C)[C@H](NC(=O)[C@H](C)NC(=O)[C@@H](NC(=O)c1cnccn1)C(C)(C)C)C(=O)C(=O)NCc1ccccc1` [PVA-058]: the IC50 was under 200 nM.
On to `CC(C)[C@H](NC(=O)[C@H](C)NC(=O)[C@@H](NC(=O)c1ccnc2ccccc12)C(C)(C)C)C(=O)C(=O)NCc1ccc(S(N)(=O)=O)cc1` [PVA-185], for which the IC50 was under 20 nM.
On the same count and under the same terms, as for `CC(C)[C@H](NC(=O)[C@H](C)NC(=O)[C@@H](NC(=O)c1ccnc2ccccc12)C(C)(C)C)C(=O)C(N)=O` [PVA-156], the figure is under 20 nM; as for `COc1ccc(NC(=O)C(=O)[C@@H](NC(=O)[C@H](C)NC(=O)[C@H](Cc2ccccc2)NC(=O)c2ccccc2)C(C)C)cc1` [PVA-012], under 2000 nM.
With `CC(C)[C@H](NC(=O)[C@H](C)NC(=O)[C@H](Cc1ccccc1)NC(=O)c1ccncc1)C(=O)C(=O)NC1CCC1` [PVA-174], the half-maximal inhibitory concentration (IC50) is under 200 nM.
Still for that read-out and setting: as for `CC(C)[C@H](NC(=O)[C@H](C)NC(=O)[C@@H](NC(=O)c1ccccc1)C(C)(C)C)C(=O)C(=O)NCc1ccc(C(N)=O)cc1` [PVA-202], the figure is under 20 nM; as for `CC(C)[C@H](NC(=O)[C@H](C)NC(=O)[C@H](Cc1ccccc1)NC(=O)c1cccc(OCCN2CCCC2)c1)C(=O)C(=O)NC1CCCCC1` [PVA-065], under 200 nM.
Turning to `CC(C)[C@H](NC(=O)[C@H](C)NC(=O)[C@@H](NC(=O)c1ccnc2ccccc12)C(C)(C)C)C(=O)C(=O)NCc1ccc(C(N)=O)cc1` [PVA-188], the IC50 was under 20 nM.
The same measure, in the same setting: to `CC(C)[C@H](NC(=O)[C@H](C)NC(=O)[C@@H](NC(=O)c1cccc2[nH]ncc12)C(C)(C)C)C(=O)C(=O)NCc1ccccc1` [PVA-149] belongs under 20 nM.
